Source: US12060577B2, “Compositions for expanding natural killer cells” (CASE WESTERN RESERVE UNIVERSITY, priority 2017, dated 2024)

Tested on: OCI-AML3 target cells
Assay: effect of TGF-beta and galunisertib on NK cell cytotoxicity (FIG. 11)
Assay type: cell-based
Settings: 72 hours, NK cells expanded with K562 mbIL-21, 5:1 NK:target
Method: NK cell cytotoxic function was assessed by measuring the number of live cells identified by calcein-AM (CAM) labeling. Target cells and NK cells were labeled with CAM (BD Pharmingen, San Jose, Calif.) and calcein-violet (CV) (eBioscience from ThermoFisher), respectively for approximately 15 minutes in the dark at room temperature. NK cells were co-incubated with target cells at the indicated ratios for 4 hours in triplicate at 37° C. in a tissue culture incubator with 5% CO2, and the samples were analyzed by flow cytometry (Attune NXT, Invitrogen) in 96 well plates. The CV-positive NK cells were gated out for analysis. Percent lysis was calculated according to the equation below: […]
Referring to FIG. 11, expanded NK cells (K562 cells expressing mbIL-21) were treated with TGF-beta (5 ng/mL), galunisertib, or a combination thereof for 72 hours. […] That drop can be rescued and reversed by co-administering NK cells with galunisertib (middle and right bars), in which case killing efficacy was improved by about 10%.

Cc1cccc(-c2nn3c(c2-c2ccnc4ccc(C(N)=O)cc24)CCC3)n1 [galunisertib]
improvement of killing efficacy: about 10%
